From patent publication US8841312B2, “Fused pyridine, pyrimidine and triazine compounds as cell cycle inhibitors” (Amgen Inc., priority 2007, dated 2014) come the findings set out here.

For one test, the target named is Cdk4/CyclinD1 (Homo sapiens (Human), UniProt P11802). The test is described as follows: Cdk4 kinase inhibition assay with recombinant Cdk4/CyclinD1, Rb substrate, [33P]-ATP filter plate. The test is classed as biochemical. The conditions noted are these: 25 μM ATP, read-out: Cdk 4 IC50. Summed up: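 Recombinant Cdk4/CyclinD1 or Cdk6/CyclinD3 phosphorylated Rb protein with [33P]-ATP for 1 h at room temperature. Protein was TCA-precipitated on filter plates and bound radioactivity counted. IC50 by nonlinear regression.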
Chain of Cdk4/CyclinD1 (P11802 whole entry): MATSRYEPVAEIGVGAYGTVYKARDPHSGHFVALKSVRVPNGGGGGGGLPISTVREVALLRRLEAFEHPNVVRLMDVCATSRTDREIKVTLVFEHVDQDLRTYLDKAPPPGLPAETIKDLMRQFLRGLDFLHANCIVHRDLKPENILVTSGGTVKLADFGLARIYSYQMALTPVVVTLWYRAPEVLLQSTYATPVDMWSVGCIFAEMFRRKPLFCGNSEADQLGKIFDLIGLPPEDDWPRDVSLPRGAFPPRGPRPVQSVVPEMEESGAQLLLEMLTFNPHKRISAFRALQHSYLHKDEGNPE
Chain of Cdk4/CyclinD1 (P24385 whole entry partner): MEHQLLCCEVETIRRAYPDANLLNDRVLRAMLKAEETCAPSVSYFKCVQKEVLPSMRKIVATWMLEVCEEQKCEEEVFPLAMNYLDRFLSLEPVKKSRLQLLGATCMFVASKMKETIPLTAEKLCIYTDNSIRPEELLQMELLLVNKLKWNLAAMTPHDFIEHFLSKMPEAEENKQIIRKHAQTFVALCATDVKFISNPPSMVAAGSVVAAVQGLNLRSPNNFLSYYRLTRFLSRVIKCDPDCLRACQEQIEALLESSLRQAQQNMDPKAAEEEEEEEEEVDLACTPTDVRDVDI

The target of the next test is Cdk6/CyclinD3 (Homo sapiens (Human), UniProt Q00534). The test is described as follows: Cdk6 kinase inhibition assay with recombinant Cdk6/CyclinD3, Rb substrate, [33P]-ATP filter plate. The test is classed as biochemical. The conditions noted are these: 25 μM ATP, read-out: Cdk 6 IC50. The protocol:
The Cdk4 and Cdk6 inhibitory activity of the compounds is measured with a kinase inhibition assay using recombinant Cdk4/CyclinD1 or Cdk6/CyclinD3 protein complexes. The protein substrate used in the assay is the retinoblastoma protein (Rb). The kinase reactions are carried out in a 96-well filter plate (MSDV N6B50, Millipore). […] The mixture is incubated at room temperature for 1 hour and the proteins precipitated with an equal volume of 20% TCA. The plates are washed with 10% TCA according to the manufacturer's instruction and dried at room temperature. The amount of the phosphorylated Rb is determined with a TopCount (PerkinElmer). The IC50 of a compound is determined by nonlinear regression curve fitting using software program Prism 5 (GraphPad Software).

Chain of Cdk6/CyclinD3 (Q00534 whole entry): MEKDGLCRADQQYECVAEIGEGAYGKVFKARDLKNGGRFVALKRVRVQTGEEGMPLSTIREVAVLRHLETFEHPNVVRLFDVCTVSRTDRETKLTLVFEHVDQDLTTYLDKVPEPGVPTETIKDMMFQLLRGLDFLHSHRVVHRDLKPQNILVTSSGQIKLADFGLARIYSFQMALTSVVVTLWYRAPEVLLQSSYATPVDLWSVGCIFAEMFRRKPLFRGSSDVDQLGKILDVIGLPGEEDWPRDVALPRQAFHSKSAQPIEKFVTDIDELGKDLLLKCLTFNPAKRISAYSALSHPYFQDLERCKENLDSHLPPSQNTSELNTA
Chain of Cdk6/CyclinD3 (P30281 whole entry partner): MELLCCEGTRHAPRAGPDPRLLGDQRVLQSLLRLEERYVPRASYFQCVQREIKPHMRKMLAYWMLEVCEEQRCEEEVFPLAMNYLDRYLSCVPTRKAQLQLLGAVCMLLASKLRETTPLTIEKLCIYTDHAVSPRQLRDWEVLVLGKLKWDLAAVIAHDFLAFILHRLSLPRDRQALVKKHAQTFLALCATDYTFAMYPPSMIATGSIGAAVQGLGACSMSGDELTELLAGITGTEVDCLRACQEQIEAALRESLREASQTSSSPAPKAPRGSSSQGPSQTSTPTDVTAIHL

With `c1cc2c3cnc(Nc4ccc(N5CCNCC5)cn4)cc3n(Cc3ccsc3)c2cn1` [Example 235, N-(5-(1-piperazinyl)-2-pyridinyl)-5-(3-thiophenylmethyl)-5H-pyrido[3′,4′:4,5]pyrrolo[2,3-c]pyridin-3-amine], the IC50 at Cdk4/CyclinD1 was determined as 125 nM; at Cdk6/CyclinD3 it was 257 nM.

`CCNC1CCN(c2ccc(Nc3ncc4c5ccncc5n(C5CCCC5)c4n3)nc2)CC1` [Example 464]: the concentration for half-maximal inhibition (IC50) on Cdk4/CyclinD1 worked out at 2 nM; on Cdk6/CyclinD3, 3.1 nM.

With `c1cc(Nc2ncc3c4sncc4n(C4CCCC4)c3n2)ncc1N1CCNCC1` [Example 168, 4-Cyclopentyl-N-(5-(1-piperazinyl)-2-pyridinyl)-4H-isothiazolo[5′,4′:4,5]pyrrolo[2,3-d]pyrimidin-6-amine], the IC50 at Cdk4/CyclinD1 and at Cdk6/CyclinD3 was 10000 nM throughout.

For `CNC1CCN(c2ccc(Nc3ncc4c5ccncc5n(C5CCCC5)c4n3)nn2)CC1` [Example 77], the IC50 on Cdk4/CyclinD1 came out at 3 nM; on Cdk6/CyclinD3, 11 nM.

With `OCC1(n2c3cnccc3c3cnc(Nc4ccc(N5CCNCC5)cn4)nc32)CCCC1` [Example 44, {1-[2-(5-piperazin-1-yl-pyridin-2-ylamino)-pyrido[4′,3′:4,5]pyrrolo[2,3-d]pyrimidin-9-yl]-cyclopentyl}-methanol], the values for the IC50 on Cdk4/CyclinD1 and on Cdk6/CyclinD3 were 11 nM and 25 nM, respectively.

Turning to `OC1CCN(C2CCN(c3ccc(Nc4ncc5c6ccncc6n(C6CCCC6)c5n4)nn3)CC2)CC1` [Example 455], the IC50 on Cdk4/CyclinD1 was 7 nM; on Cdk6/CyclinD3, 9 nM.

Take `CC[C@@H](C)n1c2cnccc2c2cnc(Nc3ccc(N4CC[C@@H](O)C4)cn3)nc21` [Example 322]: the IC50 was found to be 15 nM on Cdk4/CyclinD1 and 50 nM at Cdk6/CyclinD3.

In the case of `c1cc2c3cnc(Nc4ccc(N5CCNCC5)cn4)nc3n(CC3CCCCC3)c2cn1` [Example 32, (9-Cyclohexylmethyl-9H-pyrido[4′,3′:4,5]pyrrolo[2,3-d]pyrimidin-2-yl)-(5-piperazin-1-yl-pyridin-2-yl)-amine], the results for the IC50 on Cdk4/CyclinD1 and at Cdk6/CyclinD3 were 13 nM and 30.4 nM, respectively.

For `OCCCn1c2cnccc2c2cnc(Nc3ccc(N4CC[C@@H](O)C4)nn3)nc21` [Example 353], the results for the IC50 on Cdk4/CyclinD1 and at Cdk6/CyclinD3 were 90 nM and 103 nM, respectively.

`OC1CCCN(Cc2ccc(Nc3ncc4c5ccncc5n(C5CCCC5)c4n3)nc2)C1` (stereo not drawn) [Example 216, 1-((6-((9-cyclopentyl-9H-pyrido[4′,3′:4,5]pyrrolo[2,3-d]pyrimidin-2-yl)amino)-3-pyridinyl)methyl)-3-piperidinol]: the IC50 at Cdk4/CyclinD1 was 10 nM; at Cdk6/CyclinD3, 15 nM.

Regarding `CCC(CC)n1c2cnccc2c2cnc(Nc3ccc(N4CCC(N(C)C)CC4)nn3)nc21` [Example 163, N-(6-(4-(Dimethylamino)-1-piperidinyl)-3-pyridazinyl)-9-(1-ethylpropyl)-9H-pyrido[4′,3′:4,5]pyrrolo[2,3-d]pyrimidin-2-amine], the figures for the IC50 at Cdk4/CyclinD1 and on Cdk6/CyclinD3 were 17 nM and 16 nM, respectively.

As to `C[C@H](O)CNC1CCN(c2ccc(Nc3ncc4c5ccncc5n(C5CCCC5)c4n3)nc2)CC1` [Example 459], the IC50 at Cdk6/CyclinD3 amounted to 14 nM.

As to `O[C@H]1CCN(c2ccc(Nc3ncc4c5ccnc(F)c5n(C5CCCC5)c4n3)nc2)C1` [Example 186B, (3S)-1-(6-((9-cyclopentyl-8-fluoro-9H-pyrido[4′,3′:4,5]pyrrolo[2,3-d]pyrimidin-2-yl)amino)-3-pyridinyl)-3-pyrrolidinol], on Cdk6/CyclinD3, the IC50 amounted to 4.8 nM.

As to `C[C@@H](O)CNC1CCN(c2ccc(Nc3ncc4c5ccncc5n(C5CCCC5)c4n3)nc2)CC1` [Example 460], at Cdk6/CyclinD3, the IC50 is 12 nM.

For `O[C@@H]1CCN(c2ccc(Nc3ncc4c5ccnc(F)c5n(C5CCCC5)c4n3)nc2)C1` [Example 186A, (3R)-1-(6-((9-cyclopentyl-8-fluoro-9H-pyrido[4′,3′:4,5]pyrrolo[2,3-d]pyrimidin-2-yl)amino)-3-pyridinyl)-3-pyrrolidinol], the IC50 on Cdk6/CyclinD3 turned out to be 2 nM.

Regarding `c1cc2c3cnc(Nc4ccc(N5CCNCC5)cc4)nc3n(C3CC4CCC3C4)c2cn1` (stereo not drawn) [Example 40, (9-Bicyclo[2.2.1]hept-2-yl-9H-pyrido[4′,3′:4,5]pyrrolo[2,3-d]pyrimidin-2-yl)-(4-piperazin-1-yl-phenyl)-amine], on Cdk6/CyclinD3, the IC50 worked out at 2.6 nM.

For `O[C@@H]1CCN(c2ccc(Nc3ncc4c5ccncc5n([C@H]5CCC[C@H]5O)c4n3)nn2)C1` [Example 366], at Cdk4/CyclinD1, the IC50 came out at 330 nM.

Regarding `CC1CN(c2cnc(Nc3ncc4c5ccncc5n(C5CCCC5)c4n3)cn2)CC(C)N1` (stereo not drawn) [Example 79], the IC50 at Cdk4/CyclinD1 is 12 nM.

On to `CNC1CCN(c2ccc(Nc3ncc4c5ccncc5n([C@@H](C)CO)c4n3)nn2)CC1` [Example 373], for which the IC50 at Cdk4/CyclinD1 was 45 nM.

Regarding `CC1(C)CN(c2ccc(Nc3ncc4c5ccncc5n([C@H]5CCC[C@@H]5O)c4n3)nc2)CCN1` [Example 402], at Cdk4/CyclinD1, the IC50 turned out to be 175 nM.

With `C[C@@H](O)Cn1c2cnccc2c2cnc(Nc3ccc(N4CCNC(C)(C)C4)cn3)nc21` [Example 426], at Cdk4/CyclinD1, the IC50 is 115 nM.

As for `CN(CCO)c1ccc(Nc2ncc3c4ccncc4n(C4CCCC4)c3n2)nn1` [Example 291], the IC50 at Cdk4/CyclinD1 stood at 3.9 nM.

As to `CN(C)C1CCN(c2ccc(Nc3ncc4c5ccncc5n(C5CCCC5)c4n3)nc2)CC1` [Example 12], the IC50 at Cdk4/CyclinD1 came to 9.6 nM.

For the compound `CN(C)C1CCN(C(=O)Cc2ccc(Nc3ncc4c5ccncc5n(C5CCCC5)c4n3)nc2)CC1` [Example 243, 9-cyclopentyl-N-(5-(2-(4-(dimethylamino)-1-piperidinyl)-2-oxoethyl)-2-pyridinyl)-9H-pyrido[4′,3′:4,5]pyrrolo[2,3-d]pyrimidin-2-amine], the IC50 on Cdk4/CyclinD1 is 7 nM.

As for `CN(C)C1CCN(c2ccc(Nc3ncc4c5ccncc5n([C@H]5CCC[C@@H]5O)c4n3)nn2)CC1` [Example 405], the IC50 at Cdk4/CyclinD1 was found to be 750 nM.

Turning to `C[C@@H](O)Cn1c2cnccc2c2cnc(Nc3ccc(N4CC[C@@H](O)C4)nn3)nc21` [Example 419], the IC50 on Cdk4/CyclinD1 amounted to 162 nM.

Turning to `OCCN1CCN(c2ccc(Nc3ncc4c5ccnc(F)c5n(C5CCCC5)c4n3)nc2)CC1` [Example 170, 2-(4-(6-((9-Cyclopentyl-8-fluoro-9H-pyrido[4′,3′:4,5]pyrrolo[2,3-d]pyrimidin-2-yl)amino)-3-pyridinyl)-1-piperazinyl)ethanol], the IC50 at Cdk4/CyclinD1 worked out at 2.5 nM.

As to `Fc1cncc2c1c1cnc(Nc3ccc(N4CCNCC4)cn3)nc1n2C1CCCC1` [Example 58, 9-Cyclopentyl-5-fluoro-N-(5-(1-piperazinyl)-2-pyridinyl)-9H-pyrido[4′,3′:4,5]pyrrolo[2,3-d]pyrimidin-2-amine], the IC50 on Cdk4/CyclinD1 was 5.2 nM.

In the case of `C[C@H]1CN(c2ccc(Nc3ncc4c5ccncc5n([C@H]5CCC[C@H]5O)c4n3)nn2)CCN1` [Example 363], on Cdk4/CyclinD1, the IC50 is 211 nM.

Turning to `CC[C@H](C)n1c2cnccc2c2cnc(Nc3ccc(N4CCNCC4)nn3)nc21` [Example 331], on Cdk4/CyclinD1, the half-inhibitory concentration (IC50) was 390 nM.

For the compound `NC1CCCN(c2ccc(Nc3ncc4c5ccncc5n(C5CCCC5)c4n3)nn2)C1` (stereo not drawn) [Example 116], the 50% inhibitory concentration (IC50) on Cdk4/CyclinD1 stood at 2 nM.

With `c1cncc(-c2ccc(Nc3ncc4c5ccncc5n(C5CCCC5)c4n3)nn2)c1` [Example 267, 9-Cyclopentyl-N-(6-(3-pyridinyl)-3-pyridazinyl)-9H-pyrido[4′,3′:4,5]pyrrolo[2,3-d]pyrimidin-2-amine], the IC50 on Cdk4/CyclinD1 came out at 73 nM.

With `C[C@H]1CN(c2ccc(Nc3ncc4c5ccncc5n([C@H]5CCC[C@H]5O)c4n3)nc2)CCN1` [Example 359], the IC50 on Cdk4/CyclinD1 was 71 nM.

Take `O=C(Cc1ccc(Nc2ncc3c4ccncc4n(C4CCCC4)c3n2)nc1)N1CCOCC1` [Example 244, 9-cyclopentyl-N-(5-(2-(4-morpholinyl)-2-oxoethyl)-2-pyridinyl)-9H-pyrido[4′,3′:4,5]pyrrolo[2,3-d]pyrimidin-2-amine]: at Cdk4/CyclinD1, the IC50 is 11 nM.

For `CC1CN(c2ccc(Nc3ncc4c5ccncc5n(C5CCCC5)c4n3)nc2)CC(C)N1` (stereo not drawn) [Example 72], at Cdk4/CyclinD1, the IC50 was found to be 2.3 nM.

On to `CN(C)C1CCN(c2ccc(Nc3ncc4c5ccncc5n([C@H]5CC[C@H](O)CC5)c4n3)nn2)CC1` [Example 287, Trans-4-(2-((6-(4-(dimethylamino)-1-piperidinyl)-3-pyridazinyl)amino)-9H-pyrido[4′,3′:4,5]pyrrolo[2,3-d]pyrimidin-9-yl)cyclohexanol], for which the half-inhibitory concentration (IC50) on Cdk4/CyclinD1 was 123 nM.

Take `O=C(O)CC1CCN(c2ccc(Nc3ncc4c5ccnc(F)c5n(C5CCCC5)c4n3)nc2)CC1` [Example 175, (1-(6-((9-Cyclopentyl-8-fluoro-9H-pyrido[4′,3′:4,5]pyrrolo[2,3-d]pyrimidin-2-yl)amino)-3-pyridinyl)-4-piperidinyl)acetic acid]: on Cdk4/CyclinD1, the 50% inhibitory concentration (IC50) was 37 nM.

As to `O=C1COC2(CCN(c3ccc(Nc4ncc5c6ccncc6n(C6CCCC6)c5n4)nn3)CC2)CN1` [Example 250, 9-(6-((9-cyclopentyl-9H-pyrido[4′,3′:4,5]pyrrolo[2,3-d]pyrimidin-2-yl)amino)-3-pyridazinyl)-1-oxa-4,9-diazaspiro[5.5]undecan-3-one], the IC50 on Cdk4/CyclinD1 was 16 nM.

Turning to `CN(C)C1CCN(c2cnc(Nc3ncc4c5ccncc5n(C5CCCC5)c4n3)cn2)CC1` [Example 85], at Cdk4/CyclinD1, the IC50 turned out to be 20 nM.

In the case of `CN(C)C1CCN(c2ccc(Nc3ncc4c5ccncc5n(C5CCS(=O)(=O)CC5)c4n3)nn2)CC1` [Example 279, N-(6-(4-(dimethylamino)-1-piperidinyl)-3-pyridazinyl)-9-(1,1-dioxidotetrahydro-2H-thiopyran-4-yl)-9H-pyrido[4′,3′:4,5]pyrrolo[2,3-d]pyrimidin-2-amine], at Cdk4/CyclinD1, the IC50 was 590 nM.
